From patent publication US12577245B2, “Sulfonyl benzamide derivatives as Bcl-2 inhibitors” (ASCENTAGE PHARMA (SUZHOU) CO., LTD., priority 2021, dated 2026)
pIC50: −log10 of the molar value.

Assays:
RS4; 11Bcl-2-D103E cells = test: CellTiter-Glo (CTG) cell viability assay in RS4;11-BCL2-D103E cells; assay type: cell-based; settings: 72 h, 10% FBS, 3 days
Experimental: (§1) RS4; 11Bcl-2-G101V, RS4; 11Bcl-2-D103E, RS4; 11Bcl-2-V156D and RS4; 11Bcl-2-G101V-D103E cells were obtained from Cobioer Biosciences. Cells were maintained in the RPMI-1640 medium with 10% FBS, 1% P/S and puromycin (1 μg/mL) at 37° C. and an atmosphere of 5% CO2.
(§2) • The effect of representative Compounds of the Disclosure on cell viability was determined using CellTiter-Glo® (CTG) luminescent cell viability assay (Promega, USA) according to the manufacturer's instructions. 95 μL of cell suspension (10000 cells/well) in culture medium were seeded into 96-well plates and cultured 4 hours. Each tested compound was serially diluted in blank culture medium, and 5 μL of the compound dilution was added to the corresponding well of the cell plate. After the addition of the tested compound, the cells were incubated at 37° C. in an atmosphere of 5% CO2 for 3 days. At the end of 3 days, 30 μL of CTG solution was added to each well of the plate and mix contents for 2 minutes on an orbital shaker. Allow the plate to incubate at room temperature for 15 mins to stabilize signal and record RLU on the Biotek plate reader. The readings were normalized to the vehicle cells, and the IC50 was calculated using GraphPad Prism 8 software.

RS4; 11Bcl-2-V156D cells = test: CellTiter-Glo (CTG) cell viability assay in RS4;11-BCL2-V156D cells; assay type: cell-based; settings: 72 h, 10% FBS, 3 days
Experimental: as §1, §2

RS4; 11Bcl-2-G101V cells = test: CellTiter-Glo (CTG) cell viability assay in RS4;11-Bcl-2-G101V cells; assay type: cell-based; settings: 72 h, 10% FBS, 3 days
Summary of the method: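 Luminescent ATP read-out (CellTiter-Glo) after 3-day compound treatment at 37 °C gave viability relative to vehicle, from which IC50 was fitted. Mutant Bcl-2 RS4;11 cells were seeded at 10000 per well and rested 4 h before dosing.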

Bcl-2 WT = Bcl-2 WT (Homo sapiens, UniProt P10415); test: Bcl-2 WT inhibition, fluorescence polarization (Flu-BIM tracer) binding assay; settings: FP; 20 nM Bcl2, 5 nM Flu-BIM, 1 h incubation; read-out: Bcl-2 w.t. (FP)
MV-4-11 cells = test: CCK-8 cell viability assay in MV-4-11 cells; assay type: cell-based; settings: Homo sapiens, MV4-11, 72 h, 10% FBS, 3 days
Summary of the method: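 IC50 values come from vehicle-normalized CCK-8 absorbance at 450 nm, read 1–4 h after reagent addition. Before that, MV-4-11 cells seeded at 20000 per well were cultured 3 days at 37 °C with a compound dilution series.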

Bcl-2 WT, sequence (P10415 whole entry): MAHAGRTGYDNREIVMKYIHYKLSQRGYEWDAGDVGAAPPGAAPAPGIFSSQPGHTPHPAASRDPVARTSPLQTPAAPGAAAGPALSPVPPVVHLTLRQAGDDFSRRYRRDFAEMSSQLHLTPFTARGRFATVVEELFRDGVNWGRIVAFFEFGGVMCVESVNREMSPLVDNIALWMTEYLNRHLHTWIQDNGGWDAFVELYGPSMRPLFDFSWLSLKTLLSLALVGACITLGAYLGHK

| Structure (SMILES) | pIC50 (RS4; 11Bcl-2-D103E cells) | pIC50 (RS4; 11Bcl-2-V156D cells) | pIC50 (RS4; 11Bcl-2-G101V cells) | pIC50 (Bcl-2 WT) | pIC50 (MV-4-11 cells) |
| --- | --- | --- | --- | --- | --- |
| CC1(C)CCC(CN2CCN(c3ccc(C(=O)NS(=O)(=O)c4ccc(NC[C@H]5CC[C@](C)(O)CC5)c([N+](=O)[O-])c4)c(Oc4cnc5[nH]ccc5c4)c3)CC2)=C(c2cc(-c3c(F)cc(C(C)(C)O)cc3F)cs2)C1 [Example 63, 2-((1H-pyrrolo[2,3-b]pyridin-5-yl)oxy)-4-(4-((2-(4-(2,6-difluoro-4-(2-hydroxypropan-2-yl)phenyl)thiophen-2-yl)-4,4-dimethylcyclohex-1-en-1-yl)methyl)piperazin-1-yl)-N-((4-((((1r,4r)-4-hydroxy-4-methylcyclohexyl)methyl)amino)-3-nitrophenyl)sulfonyl)benzamide] | 6.74 | 7.72 | 7.85 | 7.79 | 8.05 |
| C[C@H](O)c1cc(F)c(-c2csc(C3=C(CN4CCN(c5ccc(C(=O)NS(=O)(=O)c6ccc(NC[C@H]7CC[C@](C)(O)CC7)c([N+](=O)[O-])c6)c(Oc6cnc7[nH]ccc7c6)c5)CC4)CCC(C)(C)C3)c2)c(F)c1 [Example 84, 2-((1H-pyrrolo[2,3-b]pyridin-5-yl)oxy)-4-(4-((2-(4-(2,6-difluoro-4-((S)-1-hydroxyethyl)phenyl)thiophen-2-yl)-4,4-dimethylcyclohex-1-en-1-yl)methyl)piperazin-1-yl)-N-((4-((((1r,4r)-4-hydroxy-4-methylcyclohexyl)methyl)amino)-3-nitrophenyl)sulfonyl)benzamide] | 7.01 | 8.10 | 7.15 | – | 8.15 |
